The numbers were not newly measured in US8278040B2, “Optically responsive and mechanically tunable colloid-in-liquid crystal gels” (priority 2008, dated 2012), which cites them from elsewhere.

This data set relates to live cells.

Turning to `CCCCCc1ccc(-c2ccc(C#N)cc2)cc1` [5CB, 4-cyano-4′-pentylbiphenyl], the “toxicity to living cells (stated)” value (general statement, criteria of Luk et al.) is “cytotoxic”. Moreover, where the note is “placed into direct contact with live cells”, the “cell death on direct contact with live cells” value is reported as “cause cell death within a short time period”.
